By MIC is commonly meant the smallest concentration in the dilution series that meets the test's criterion for growth inhibition. A low value points to inhibition by little substance. What is called IC50 is the concentration that inhibits the measured activity by half. Lower therefore signals inhibition by little substance. What is called Ki is a dissociation constant, usually derived from enzyme kinetics or from competition with a known ligand. The low end stands for a stronger hold on the target, the high end for a looser hold on the target.

We go through two compounds from PMC12355328 (ACS Omega, 2025).

Converted amounts (≈) assume the structure as drawn. Residues, ends and D or L forms follow the SMILES beside them. Some results are limits rather than exact numbers.

Data set [1] in a line: Circular dichroism spectroscopy. The format is physicochemical. The following applies: 50 μM, 100 mM NaF, 10 mM KH2PO4, pH 7.5; averaged of three repeats, 298 K. For orientation: Circular dichroism is the unequal absorption of left and right circularly polarised light.
Data set [2] in a line: Dye-leakage assay, POPE/POPG. The settings on record: 100 μM POPE/POPG LUV; 298 K.
A short description of data set [3]: Dye-leakage assay, POPG/TOCL. The following applies: 100 μM POPG/TOCL LUV; 298 K.
For another data set, the system named is E. coli ATCC25922. The data set can be described thus: MIC assay, ciprofloxacin-sensitive E. coli. The settings on record: MHB, 6 h, OD600, concentration at which growth surpassed 10%. The format is cell-based, Escherichia coli.
The subject of another data set is E. coli BAA 3051. Put plainly: MIC assay, ciprofloxacin-resistant E. coli. The format is cell-based, Escherichia coli. The following applies: E. coli BAA 3051 (ciprofloxacin-resistant); MHB, 6 h, OD600; concentration at which growth surpassed 10%.
The next data set has as its target DnaK (Escherichia coli, UniProt P0A6Y8). The data set can be described thus: DnaK binding assay.
In the next data set the target is DNA gyrase (Escherichia coli, UniProt P0AES4+P0AES6). Put plainly: DNA gyrase inhibition. The data set is classed as biochemical.
Sequence of DNA gyrase (P0AES4 whole entry, one chain of several): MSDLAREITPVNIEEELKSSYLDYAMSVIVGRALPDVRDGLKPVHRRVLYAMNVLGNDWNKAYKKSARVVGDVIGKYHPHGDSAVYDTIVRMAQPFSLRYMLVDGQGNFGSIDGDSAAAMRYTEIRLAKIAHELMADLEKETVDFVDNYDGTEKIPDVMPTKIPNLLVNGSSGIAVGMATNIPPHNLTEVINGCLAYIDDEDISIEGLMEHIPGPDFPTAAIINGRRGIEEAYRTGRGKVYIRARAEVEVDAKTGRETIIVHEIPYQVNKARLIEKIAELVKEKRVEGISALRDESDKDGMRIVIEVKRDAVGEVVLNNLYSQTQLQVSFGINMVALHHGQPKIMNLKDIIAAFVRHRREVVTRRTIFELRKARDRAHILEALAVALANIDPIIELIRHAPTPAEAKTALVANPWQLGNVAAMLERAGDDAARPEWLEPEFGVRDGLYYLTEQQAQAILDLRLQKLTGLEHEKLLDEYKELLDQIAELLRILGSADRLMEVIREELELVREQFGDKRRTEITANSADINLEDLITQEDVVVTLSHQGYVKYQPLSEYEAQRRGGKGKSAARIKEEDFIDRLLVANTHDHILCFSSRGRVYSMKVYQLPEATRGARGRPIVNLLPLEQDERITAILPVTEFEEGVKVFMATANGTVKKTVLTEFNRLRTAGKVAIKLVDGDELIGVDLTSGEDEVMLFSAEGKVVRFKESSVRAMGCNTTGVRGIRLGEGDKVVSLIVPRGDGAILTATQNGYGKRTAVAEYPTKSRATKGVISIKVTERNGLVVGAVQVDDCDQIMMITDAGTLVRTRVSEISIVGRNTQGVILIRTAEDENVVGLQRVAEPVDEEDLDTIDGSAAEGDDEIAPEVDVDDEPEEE

Sequence of DnaK (P0A6Y8 whole entry): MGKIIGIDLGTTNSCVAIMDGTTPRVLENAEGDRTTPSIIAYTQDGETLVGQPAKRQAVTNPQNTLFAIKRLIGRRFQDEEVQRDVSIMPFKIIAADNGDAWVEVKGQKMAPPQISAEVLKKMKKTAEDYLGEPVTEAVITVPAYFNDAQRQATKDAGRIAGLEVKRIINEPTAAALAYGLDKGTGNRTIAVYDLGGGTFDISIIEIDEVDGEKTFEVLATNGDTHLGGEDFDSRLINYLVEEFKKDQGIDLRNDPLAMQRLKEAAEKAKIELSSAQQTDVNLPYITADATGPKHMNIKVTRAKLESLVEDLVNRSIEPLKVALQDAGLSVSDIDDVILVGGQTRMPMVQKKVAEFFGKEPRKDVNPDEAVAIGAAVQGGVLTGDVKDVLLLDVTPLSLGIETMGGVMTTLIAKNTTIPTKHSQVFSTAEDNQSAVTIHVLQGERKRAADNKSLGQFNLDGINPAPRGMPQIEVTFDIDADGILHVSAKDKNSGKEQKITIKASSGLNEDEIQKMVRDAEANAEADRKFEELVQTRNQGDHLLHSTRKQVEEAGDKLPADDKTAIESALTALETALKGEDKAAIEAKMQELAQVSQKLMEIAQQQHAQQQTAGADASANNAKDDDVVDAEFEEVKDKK

On to `O=C(O)c1cn(C2CC2)c2cc(N3CCNCC3)c(F)cc2c1=O` [ciprofloxacin], for which the “CD: conformation / aggregation in buffer (in words)” value in data set [1] is on record as “not optically active in CD”. Besides, the “leakage profile (in words)” value was “showed a similar trend to POPC” in data set [2] and “showed a similar trend as in POPC” in data set [3].

For the compound `CC[C@H](C)[C@H](NC(=O)[C@H](CCCNC(=N)N)NC(=O)[C@H](CCCNC(=N)N)NC(=O)[C@@H]1CCCN1C(=O)[C@@H]1CCCN1C(=O)[C@H](CCCNC(=N)N)NC(=O)[C@@H]1CCCN1C(=O)[C@H](CCCNC(=N)N)NC(=O)[C@@H]1CCCN1C(=O)[C@H](CC(C)C)NC(=O)[C@H](Cc1ccc(O)cc1)NC(=O)[C@@H]1CCCN1C(=O)[C@@H]1CCCN1C(=O)[C@H](CCCCN)NC(=O)[C@H](CC(=O)O)NC(=O)[C@@H](N)C(C)C)C(=O)N[C@@H](Cc1ccc(O)cc1)C(=O)N[C@@H](CC(N)=O)C(=O)N[C@@H](CCCNC(=N)N)C(N)=O` [oncocin] (H-VDKPPYLPRPRPPRRIYNR-NH2), the MIC with E. coli ATCC25922 and against E. coli BAA 3051 was 1 µM (≈ 2.39 µg/mL) in each case. Also, the half-inhibitory concentration (IC50) at DnaK was 1540 nM; on DNA gyrase it was greater than 10000 nM. In addition, the Ki on DnaK was 390 nM.
